Assay [1] is described as follows: DRUGMATRIX: Imidazoline I2, Central radioligand binding (ligand: [3H] Idazoxan). In kind it is cell membranes, Rattus norvegicus, Wistar, Cerebral cortex, Membrane. To be noted: Not Active = under 50% inhibition at 10 µM.
A further assay concerns the target T1, Leukotriene C4 synthase (Cavia porcellus, UniProt A6XA80).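 Also: enzyme inhibition assay of leukotriene C4 synthase, using LTA4 as the substrate; in other assays of this panel Not Active means under 50% inhibition at 10 µM.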
T1 sequence (A6XA80 whole entry): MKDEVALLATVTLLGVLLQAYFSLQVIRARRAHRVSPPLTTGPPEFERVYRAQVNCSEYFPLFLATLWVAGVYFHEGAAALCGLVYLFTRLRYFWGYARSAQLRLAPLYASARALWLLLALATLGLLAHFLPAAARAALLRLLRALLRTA
In kind it is tissue-based, Lung.

Assay [2] has as its target Prostaglandin G/H synthase 1 (Homo sapiens, UniProt P23219). Kind of assay: biochemical. It counts as tissue-based, Platelet. Particulars: platelet.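 Also: inhibition of COX-1 enzyme activity, with arachidonic acid supplied as substrate; in other assays of this panel Not Active means under 50% inhibition at 10 µM.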
In assay [3] the target is T2, C-X-C chemokine receptor type 2 (Homo sapiens, UniProt P25025). Also: in other assays of this panel Not Active means under 50% inhibition at 10 µM.
T2 sequence (P25025 whole entry): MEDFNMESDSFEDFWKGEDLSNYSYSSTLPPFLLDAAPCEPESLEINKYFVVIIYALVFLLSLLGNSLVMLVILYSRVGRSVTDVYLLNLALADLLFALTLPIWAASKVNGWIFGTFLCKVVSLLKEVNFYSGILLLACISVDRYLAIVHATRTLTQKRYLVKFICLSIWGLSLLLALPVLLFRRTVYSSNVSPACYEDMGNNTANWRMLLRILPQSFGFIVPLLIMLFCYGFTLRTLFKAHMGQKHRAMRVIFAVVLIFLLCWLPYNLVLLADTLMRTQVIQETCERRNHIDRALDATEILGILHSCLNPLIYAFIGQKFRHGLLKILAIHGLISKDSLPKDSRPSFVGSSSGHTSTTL
It counts as cell membranes, Membrane. Particulars: cho-k1.

For the next assay, the target named is T3, Interstitial collagenase (Homo sapiens, UniProt P03956).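 Also: MMP-1 enzyme inhibition assay using a peptide substrate; in other assays of this panel Not Active means under 50% inhibition at 10 µM.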
T3 sequence (P03956 whole entry): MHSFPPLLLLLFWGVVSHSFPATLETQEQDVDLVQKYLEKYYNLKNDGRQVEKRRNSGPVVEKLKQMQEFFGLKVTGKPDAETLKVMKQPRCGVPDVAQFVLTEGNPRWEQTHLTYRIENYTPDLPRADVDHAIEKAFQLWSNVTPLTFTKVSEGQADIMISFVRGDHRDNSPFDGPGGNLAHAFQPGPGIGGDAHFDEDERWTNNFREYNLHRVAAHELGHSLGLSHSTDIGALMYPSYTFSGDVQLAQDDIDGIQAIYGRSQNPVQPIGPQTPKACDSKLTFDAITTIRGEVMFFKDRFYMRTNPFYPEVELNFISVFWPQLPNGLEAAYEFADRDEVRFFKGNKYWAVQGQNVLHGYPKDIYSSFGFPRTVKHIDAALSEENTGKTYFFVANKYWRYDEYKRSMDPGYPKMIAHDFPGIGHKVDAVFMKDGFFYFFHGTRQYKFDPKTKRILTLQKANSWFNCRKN
It counts as tissue-based, Rheumatoid synovial fibroblasts.

Assay [4] concerns the target T4, C-X-C chemokine receptor type 1 (Homo sapiens, UniProt P25024). Also: in other assays of this panel Not Active means under 50% inhibition at 10 µM.
T4 sequence (P25024 whole entry): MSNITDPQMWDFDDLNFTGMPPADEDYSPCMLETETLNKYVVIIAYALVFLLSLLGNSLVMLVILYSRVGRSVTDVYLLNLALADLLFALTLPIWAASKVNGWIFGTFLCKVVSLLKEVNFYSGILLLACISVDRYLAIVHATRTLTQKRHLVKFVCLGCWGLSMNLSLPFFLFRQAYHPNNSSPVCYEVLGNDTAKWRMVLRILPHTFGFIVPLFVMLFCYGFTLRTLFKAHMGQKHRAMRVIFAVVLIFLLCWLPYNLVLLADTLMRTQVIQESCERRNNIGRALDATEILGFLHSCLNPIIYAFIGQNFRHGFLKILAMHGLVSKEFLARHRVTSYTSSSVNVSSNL

The next assay has as its target D(1A) dopamine receptor (Homo sapiens, UniProt P21728). The assay is described as follows: DRUGMATRIX: Dopamine D1 radioligand binding (ligand: [3H] SCH-23390). It counts as cell membranes, CHO, Membrane. To be noted: Not Active = under 50% inhibition at 10 µM.

D(1A) dopamine receptor, sequence (P21728 whole entry): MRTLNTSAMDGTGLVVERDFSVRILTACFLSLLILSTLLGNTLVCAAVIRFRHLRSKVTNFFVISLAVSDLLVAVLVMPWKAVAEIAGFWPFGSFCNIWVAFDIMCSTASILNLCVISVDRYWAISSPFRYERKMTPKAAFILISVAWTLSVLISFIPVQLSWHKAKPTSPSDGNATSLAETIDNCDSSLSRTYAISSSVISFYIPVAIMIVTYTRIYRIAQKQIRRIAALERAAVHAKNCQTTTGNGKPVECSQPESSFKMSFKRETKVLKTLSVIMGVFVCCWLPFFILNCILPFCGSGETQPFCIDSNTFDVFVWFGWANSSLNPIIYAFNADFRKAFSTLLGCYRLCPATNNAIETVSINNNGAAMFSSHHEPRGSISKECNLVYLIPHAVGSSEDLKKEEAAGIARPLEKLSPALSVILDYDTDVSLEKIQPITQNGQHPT
Prostaglandin G/H synthase 1, sequence (P23219 whole entry): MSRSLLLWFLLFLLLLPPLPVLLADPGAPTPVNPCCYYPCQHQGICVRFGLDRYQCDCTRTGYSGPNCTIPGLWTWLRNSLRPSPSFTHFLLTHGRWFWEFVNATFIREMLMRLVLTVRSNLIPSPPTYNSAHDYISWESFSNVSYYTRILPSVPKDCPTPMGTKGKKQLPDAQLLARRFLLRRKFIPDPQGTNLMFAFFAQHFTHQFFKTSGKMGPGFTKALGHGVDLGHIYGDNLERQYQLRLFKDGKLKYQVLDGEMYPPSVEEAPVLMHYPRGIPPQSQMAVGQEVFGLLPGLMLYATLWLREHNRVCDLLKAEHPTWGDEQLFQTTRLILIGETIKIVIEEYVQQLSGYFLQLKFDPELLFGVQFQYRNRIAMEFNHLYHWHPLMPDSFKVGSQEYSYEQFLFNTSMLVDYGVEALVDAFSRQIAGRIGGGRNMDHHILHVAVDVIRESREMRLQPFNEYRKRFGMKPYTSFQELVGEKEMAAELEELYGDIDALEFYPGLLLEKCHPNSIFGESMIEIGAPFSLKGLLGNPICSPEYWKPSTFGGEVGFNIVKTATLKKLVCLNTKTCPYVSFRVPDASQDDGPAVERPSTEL

As for `Nc1nc(Cl)nc2c1ncn2[C@H]1C[C@H](O)[C@@H](CO)O1` [CLADRIBINE], the half-inhibitory concentration (IC50) entry (in assay [1]; against Leukotriene C4 synthase; in assay [2]; in assay [3]; against Interstitial collagenase; in assay [4]) was “Not Active” each time. In addition, on D(1A) dopamine receptor (cho), the 50% inhibitory concentration (IC50) (usually the concentration that gives 50% inhibition) is “Not Active”. For the same compound, in assay [1], the Ki (commonly a measure of affinity in units of concentration, obtained from inhibition or displacement) was “Not Active”.
Consider `CC[C@H]1OC(=O)[C@H](C)[C@@H](O[C@H]2C[C@@](C)(OC)[C@@H](O)[C@H](C)O2)[C@H](C)[C@@H](O[C@@H]2O[C@H](C)C[C@H](N(C)C)[C@H]2O)[C@](C)(OC)C[C@@H](C)C(=O)[C@H](C)[C@@H](O)[C@]1(C)O` [CLARITHROMYCIN], for which the IC50 entry (in assay [1]; against Leukotriene C4 synthase; in assay [2]; in assay [3]; against Interstitial collagenase; in assay [4]) was “Not Active” in each case. The concentration for half-maximal inhibition (IC50) result on D(1A) dopamine receptor (cho) is “Not Active”. Further, the inhibition constant (Ki) entry in assay [1] is “Not Active”.
For the compound `CCC[C@@H]1C[C@@H](C(=O)N[C@@H]([C@H]2O[C@H](SC)[C@H](O)[C@@H](O)[C@H]2O)[C@H](C)Cl)N(C)C1` [CLINDAMYCIN], the IC50 entry (in assay [1]; against Leukotriene C4 synthase; in assay [2]; in assay [3]; on Interstitial collagenase; in assay [4]) was “Not Active” in each case. For the same compound, at D(1A) dopamine receptor (cho), the half-inhibitory concentration (IC50) entry is given as “Not Active”. For the same compound, the Ki entry in assay [1] is on record as “Not Active”.
For the compound `O=C(O)c1cc(=O)c2c(OCC(O)COc3cccc4oc(C(=O)O)cc(=O)c34)cccc2o1` [CROMOLYN], the IC50 entry (in assay [1]; against Leukotriene C4 synthase; in assay [2]; in assay [3]; against Interstitial collagenase; in assay [4]) was “Not Active” each time. The half-inhibitory concentration (IC50) entry on D(1A) dopamine receptor (cho) is “Not Active”. In assay [1], the inhibitory constant (Ki) entry was “Not Active”.
Regarding `O=P1(N(CCCl)CCCl)NCCCO1` (configuration not stated) [CYCLOPHOSPHAMIDE ANHYDROUS], the half-maximal inhibitory concentration (IC50) result (in assay [1]; at Leukotriene C4 synthase; in assay [2]; in assay [3]; against Interstitial collagenase; in assay [4]) was “Not Active” throughout. Besides, the IC50 entry at D(1A) dopamine receptor (cho) is “Not Active”. Further, the Ki result in assay [1] was “Not Active”.
`CC(=O)O[C@]1(C(C)=O)CC[C@H]2[C@@H]3C=C(Cl)C4=CC(=O)[C@@H]5C[C@@H]5[C@]4(C)[C@H]3CC[C@@]21C` [CYPROTERONE ACETATE]: the half-inhibitory concentration (IC50) entry (in assay [1]; against Leukotriene C4 synthase; in assay [2]; in assay [3]; against Interstitial collagenase; in assay [4]) was “Not Active” in each case. For the same compound, the IC50 entry at D(1A) dopamine receptor (cho) is on record as “Not Active”. Besides, the inhibition constant Ki result in assay [1] is “Not Active”.
With `Nc1nc(N)nc(NC2CC2)n1` [CYROMAZINE], the IC50 entry (in assay [1]; on Leukotriene C4 synthase; in assay [2]; in assay [3]; against Interstitial collagenase; in assay [4]) was “Not Active” each time. Also, the IC50 entry at D(1A) dopamine receptor (cho) is “Not Active”. Also, the Ki result in assay [1] is on record as “Not Active”.
On to `CCN[C@@H](C)Cc1cccc(C(F)(F)F)c1` [DEXFENFLURAMINE], for which the 50% inhibitory concentration (IC50) result (in assay [1]; on Leukotriene C4 synthase; in assay [2]; in assay [3]; at Interstitial collagenase; in assay [4]) was “Not Active” each time. For the same compound, the IC50 result on D(1A) dopamine receptor (cho) is “Not Active”. Further, the inhibitory constant (Ki) entry in assay [1] is “Not Active”.
With `CN1C(=O)CN=C(c2ccccc2)c2cc(Cl)ccc21` [DIAZEPAM], the half-maximal inhibitory concentration (IC50) entry (in assay [1]; at Leukotriene C4 synthase; in assay [2]; in assay [3]; on Interstitial collagenase; in assay [4]) was “Not Active” throughout. For the same compound, the IC50 result at D(1A) dopamine receptor (cho) is on record as “Not Active”. In addition, in assay [1], the Ki entry is recorded as “Not Active”.
Consider `CN1C[C@H](C(=O)N[C@]2(C)O[C@@]3(O)[C@@H]4CCCN4C(=O)[C@H](Cc4ccccc4)N3C2=O)C[C@@H]2c3cccc4[nH]cc(c34)C[C@H]21` [DIHYDROERGOTAMINE], for which the IC50 was 0.0025 µM in assay [1] (read-out: IC50); “Not Active” at Leukotriene C4 synthase; “Not Active” in assay [2]; “Not Active” in assay [3]; “Not Active” on Interstitial collagenase; “Not Active” in assay [4]. The half-maximal inhibitory concentration (IC50) on D(1A) dopamine receptor (read-out: IC50) is 2.39 µM. Besides, the figures for the Ki (in assay [1] (read-out: Ki); at D(1A) dopamine receptor (read-out: Ki)) were 0.00167 µM and 1.2 µM, respectively.
Take `Cc1c(N(C)CS(=O)(=O)[O-])c(=O)n(-c2ccccc2)n1C.[Na+]` [DIPYRONE SODIUM]: the 50% inhibitory concentration (IC50) entry (in assay [1]; against Leukotriene C4 synthase; in assay [2]; in assay [3]; at Interstitial collagenase; in assay [4]) was “Not Active” throughout. For the same compound, the half-inhibitory concentration (IC50) entry on D(1A) dopamine receptor (cho) is “Not Active”. In addition, in assay [1], the Ki entry is “Not Active”.
With `CC(CCc1ccc(O)cc1)NCCc1ccc(O)c(O)c1` (configuration not stated) [DOBUTAMINE], the IC50 entry (in assay [1]; against Leukotriene C4 synthase; in assay [2]; in assay [3]; against Interstitial collagenase; in assay [4]) was “Not Active” in each case. Also, the IC50 entry at D(1A) dopamine receptor (cho) is listed as “Not Active”. Further, in assay [1], the Ki entry is reported as “Not Active”.
For `CCn1cc(C(=O)O)c(=O)c2cc(F)c(N3CCNCC3)nc21` [ENOXACIN], the 50% inhibitory concentration (IC50) entry (in assay [1]; on Leukotriene C4 synthase; in assay [2]; in assay [3]; against Interstitial collagenase; in assay [4]) was “Not Active” each time. On D(1A) dopamine receptor (cho), the half-inhibitory concentration (IC50) result was “Not Active”. In assay [1], the Ki entry is “Not Active”.
Consider `CCC(=O)O[C@H]1[C@H](O[C@@H]2[C@@H](C)[C@H](O[C@H]3C[C@@](C)(OC)[C@@H](O)[C@H](C)O3)[C@@H](C)C(=O)O[C@H](CC)[C@@](C)(O)[C@H](O)[C@@H](C)C(=O)[C@H](C)C[C@@]2(C)O)O[C@H](C)C[C@@H]1N(C)C` [ERYTHROMYCIN PROPIONATE], for which the 50% inhibitory concentration (IC50) result (in assay [1]; at Leukotriene C4 synthase; in assay [2]; in assay [3]; against Interstitial collagenase; in assay [4]) was “Not Active” throughout. The IC50 entry on D(1A) dopamine receptor (cho) is on record as “Not Active”. Besides, in assay [1], the Ki result was “Not Active”.
In the case of `C=C(CC)C(=O)c1ccc(OCC(=O)O)c(Cl)c1Cl` [ETHACRYNIC ACID], the IC50 entry (in assay [1]; at Leukotriene C4 synthase; in assay [2]; in assay [3]; at Interstitial collagenase; in assay [4]) was “Not Active” throughout. For the same compound, on D(1A) dopamine receptor (cho), the IC50 entry is listed as “Not Active”. Also, the inhibition constant (Ki) result in assay [1] is “Not Active”.
Turning to `C#C[C@]1(O)CC[C@H]2[C@@H]3CCc4cc(O)ccc4[C@H]3CC[C@@]21C` [ETHINYL ESTRADIOL], the 50% inhibitory concentration (IC50) result (in assay [1]; on Leukotriene C4 synthase; in assay [2]; in assay [3]; at Interstitial collagenase; in assay [4]) was “Not Active” in each case. Moreover, at D(1A) dopamine receptor (cho), the half-inhibitory concentration (IC50) entry is “Not Active”. Also, the inhibitory constant (Ki) entry in assay [1] is recorded as “Not Active”.
In the case of `OCCO` [ETHYLENE GLYCOL], the IC50 entry (in assay [1]; on Leukotriene C4 synthase; in assay [2]; in assay [3]; on Interstitial collagenase; in assay [4]) was “Not Active” throughout. At D(1A) dopamine receptor (cho), the IC50 entry is “Not Active”. Further, in assay [1], the inhibition constant (Ki) entry is on record as “Not Active”.

Values taken from ChEMBL document CHEMBL1909046, “DrugMatrix in vitro pharmacology data”.
